From PubChem BioAssay AID252 (DTP/NCI, 2004)
Where “and” joins values, the source holds several entries; their conditions need not be identical. Identical values can stand only once. Inconclusive results and toxic doses are left out.

Test system: BDF1 mice, intracerebral L1210 leukemia, survival T/C
Assay: NCI In Vivo Anticancer Drug Screen. Data for tumor model L1210 Leukemia (intracerebral) in B6D2F1 (BDF1) mice
Settings: endpoint: mean survival time, higher = longer survival
Summary of the method: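 Transplantable tumour-bearing mice, compound-treated vs vehicle controls; read-out survival, reported as T/C ratio.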

[1] = dose: 250.0 mg/kg/injection, schedule: Q01DX001 (ip), vehicle: carboxymethylcellulose (CMC)
[2] = dose: 8.0 mg/kg/injection, schedule: Q01DX001 (ip), vehicle: carboxymethylcellulose (CMC)
[3] = dose: 12.0 mg/kg/injection, schedule: Q01DX001 (ip), vehicle: carboxymethylcellulose (CMC)
[4] = dose: 26.0 mg/kg/injection, schedule: Q01DX001 (ip), vehicle: saline with Tween-80
[5] = dose: 40.0 mg/kg/injection, schedule: Q01DX001 (ip), vehicle: saline with Tween-80
[6] = dose: 60.0 mg/kg/injection, schedule: Q01DX001 (ip), vehicle: saline with Tween-80
[7] = dose: 137.0 mg/kg/injection, schedule: Q01DX001 (ip), vehicle: carboxymethylcellulose (CMC)

## COc1ccc2c(Nc3ccc(NS(C)(=O)=O)cc3)c3ccccc3nc2c1
dose: 6.25 mg/kg/injection, schedule: Q01DX009 (ip), vehicle: saline
  T/C: 106 % of control
dose: 6.25 mg/kg/injection, schedule: Q01DX009 (sc), vehicle: saline
  T/C: 104 % of control
dose: 12.5 mg/kg/injection, schedule: Q01DX009 (ip), vehicle: saline
  T/C: 102 % of control
dose: 12.5 mg/kg/injection, schedule: Q01DX009 (sc), vehicle: saline
  T/C: 100 % of control
dose: 25.0 mg/kg/injection, schedule: Q01DX009 (sc), vehicle: saline
  T/C: 106 % of control
dose: 50.0 mg/kg/injection, schedule: Q01DX009 (sc), vehicle: saline
  T/C: 88 % of control

## O=NN1CCCNC1=O
dose: 75.0 mg/kg/injection, schedule: Q01DX001 (ip), vehicle: carboxymethylcellulose (CMC)
  T/C: 119 % of control
dose: 111.0 mg/kg/injection, schedule: Q01DX001 (ip), vehicle: carboxymethylcellulose (CMC)
  T/C: 117 % of control
dose: 150.0 mg/kg/injection, schedule: Q01DX001 (ip), vehicle: carboxymethylcellulose (CMC)
  T/C: 153 % of control
dose: 167.0 mg/kg/injection, schedule: Q01DX001 (ip), vehicle: carboxymethylcellulose (CMC)
  T/C: 186 % of control
[1]
  T/C: 91 % of control

## O=C(NO)c1ccncc1
dose: 100.0 mg/kg/injection, schedule: Q01DX009 (ip), vehicle: water
  T/C: 91 % of control
dose: 200.0 mg/kg/injection, schedule: Q01DX009 (ip), vehicle: water
  T/C: 92 % of control
dose: 400.0 mg/kg/injection, schedule: Q01DX009 (ip), vehicle: water
  T/C: 86 % of control
dose: 600.0 mg/kg/injection, schedule: Q01DX009 (ip), vehicle: water
  T/C: 89 % of control

## CC1CC(NC(=O)N(CCCl)N=O)CC(C)(C)C1 (stereo unspecified)
dose: 375.0 mg/kg/injection, schedule: Q01DX001 (ip), vehicle: other
  T/C: 103 % of control
dose: 500.0 mg/kg/injection, schedule: Q01DX001 (ip), vehicle: other
  T/C: 124 % of control
dose: 750.0 mg/kg/injection, schedule: Q01DX001 (ip), vehicle: other
  T/C: 116 % of control

## O=NN(CCO)C(=O)Nc1c[nH]c(=O)[nH]c1=O
dose: 173.0 mg/kg/injection, schedule: Q01DX001 (ip), vehicle: carboxymethylcellulose (CMC)
  T/C: 100 % of control
dose: 260.0 mg/kg/injection, schedule: Q01DX001 (ip), vehicle: carboxymethylcellulose (CMC)
  T/C: 102 % of control
dose: 400.0 mg/kg/injection, schedule: Q01DX001 (ip), vehicle: carboxymethylcellulose (CMC)
  T/C: 106 % of control

## O=NN(CCCl)C(=O)Nc1c[nH]c(=O)[nH]c1=O
dose: 4.4 mg/kg/injection, schedule: Q01DX001 (ip), vehicle: carboxymethylcellulose (CMC)
  T/C: 103 % of control
dose: 6.7 mg/kg/injection, schedule: Q01DX001 (ip), vehicle: carboxymethylcellulose (CMC)
  T/C: 101 % of control
dose: 10.0 mg/kg/injection, schedule: Q01DX001 (ip), vehicle: carboxymethylcellulose (CMC)
  T/C: 102 % of control
dose: 15.0 mg/kg/injection, schedule: Q01DX001 (ip), vehicle: carboxymethylcellulose (CMC)
  T/C: 103 % of control
dose: 20.0 mg/kg/injection, schedule: Q01DX001 (ip), vehicle: carboxymethylcellulose (CMC)
  T/C: 98 % of control
dose: 30.0 mg/kg/injection, schedule: Q01DX001 (ip), vehicle: carboxymethylcellulose (CMC)
  T/C: 107 % of control
dose: 40.0 mg/kg/injection, schedule: Q01DX001 (ip), vehicle: carboxymethylcellulose (CMC)
  T/C: 100 % of control
dose: 60.0 mg/kg/injection, schedule: Q01DX001 (ip), vehicle: carboxymethylcellulose (CMC)
  T/C: 94 % of control

## O=NN(CCCl)C(=O)Nc1cccc(C(=O)O)c1
[2]
  T/C: 95 % of control
[3]
  T/C: 108 % of control
dose: 18.0 mg/kg/injection, schedule: Q01DX001 (ip), vehicle: carboxymethylcellulose (CMC)
  T/C: 106 % of control

## CCCCn1cnc2c(SC3CCCC3)ncnc21
dose: 125.0 mg/kg/injection, schedule: Q01DX001 (ip), vehicle: carboxymethylcellulose (CMC)
  T/C: 101 % of control
[1]
  T/C: 108 % of control
dose: 500.0 mg/kg/injection, schedule: Q01DX001 (ip), vehicle: carboxymethylcellulose (CMC)
  T/C: 119 % of control

## O=NN(CCCl)C(=O)N[C@H]1CCCC[C@H]1O
dose: 18.0 mg/kg/injection, schedule: Q01DX001 (ip), vehicle: saline with Tween-80
  T/C: 220 % of control
[4]
  T/C: 408 % of control
[5]
  T/C: 352 % of control
[6]
  T/C: 193 % of control

## CC(=O)Nc1ccc2nc3ccc(NC(C)=O)cc3[n+](-c3ccccc3)c2c1
dose: 37.5 mg/kg/injection, schedule: Q01DX Z (ip), vehicle: carboxymethylcellulose (CMC)
  T/C: 104 % of control
dose: 50.0 mg/kg/injection, schedule: Q01DX Z (ip), vehicle: carboxymethylcellulose (CMC)
  T/C: 98 % of control
dose: 75.0 mg/kg/injection, schedule: Q01DX Z (ip), vehicle: carboxymethylcellulose (CMC)
  T/C: 103 % of control
dose: 100.0 mg/kg/injection, schedule: Q01DX Z (ip), vehicle: carboxymethylcellulose (CMC)
  T/C: 101 % of control
dose: 125.0 mg/kg/injection, schedule: Q01DX Z (ip), vehicle: carboxymethylcellulose (CMC)
  T/C: 107 % of control
dose: 250.0 mg/kg/injection, schedule: Q01DX Z (ip), vehicle: carboxymethylcellulose (CMC)
  T/C: 97 % of control

## CC(C)(C)C1CCCC(NC(=O)N(CCCl)N=O)C1 (stereo unspecified)
dose: 187.0 mg/kg/injection, schedule: Q01DX001 (ip), vehicle: saline with Tween-80
  T/C: 169 % of control

## O=NN(CCBr)C(=O)NC1CCCCC1
[7]
  T/C: 108 % of control
dose: 345.0 mg/kg/injection, schedule: Q01DX001 (ip), vehicle: carboxymethylcellulose (CMC)
  T/C: 224 % of control

## O=NN(CCCl)C(=O)NC1C=CCCC1 (stereo unspecified)
dose: 15.0 mg/kg/injection, schedule: Q01DX001 (ip), vehicle: other
  T/C: 110 % of control
dose: 20.0 mg/kg/injection, schedule: Q01DX001 (ip), vehicle: other
  T/C: 118 % of control
dose: 25.0 mg/kg/injection, schedule: Q01DX001 (ip), vehicle: other
  T/C: 122 % of control
dose: 30.0 mg/kg/injection, schedule: Q01DX001 (ip), vehicle: other
  T/C: 118 % of control
dose: 35.0 mg/kg/injection, schedule: Q01DX001 (ip), vehicle: other
  T/C: 123 % of control

## O=NN(CCCl)C(=O)Nc1ccc2ccccc2c1
[7]
  T/C: 115 % of control
dose: 200.0 mg/kg/injection, schedule: Q01DX001 (ip), vehicle: carboxymethylcellulose (CMC)
  T/C: 103 % of control
dose: 300.0 mg/kg/injection, schedule: Q01DX001 (ip), vehicle: carboxymethylcellulose (CMC)
  T/C: 108 % of control

## O=NN(CCCl)C(=O)NC1CCC(C(=O)O)CC1 (stereo unspecified)
dose: 8.0 mg/kg/injection, schedule: Q01DX001 (ip), vehicle: saline with Tween-80
  T/C: 165 % of control
[4]
  T/C: 181 % of control and 206 % of control
[5]
  T/C: 185 % of control and 212 % of control
[6]
  T/C: 204 % of control

## O=NN(CCF)C(=O)NCCCl
dose: 9.0 mg/kg/injection, schedule: Q01DX001 (ip), vehicle: Klucel (hydroxypropylcellulose) (HPC)
  T/C: 156 % of control and 203 % of control
dose: 14.0 mg/kg/injection, schedule: Q01DX001 (ip), vehicle: Klucel (hydroxypropylcellulose) (HPC)
  T/C: 233 % of control and 338 % of control
dose: 21.0 mg/kg/injection, schedule: Q01DX001 (ip), vehicle: Klucel (hydroxypropylcellulose) (HPC)
  T/C: 456 % of control and 513 % of control
dose: 32.0 mg/kg/injection, schedule: Q01DX001 (ip), vehicle: Klucel (hydroxypropylcellulose) (HPC)
  T/C: 622 % of control and 710 % of control
dose: 48.0 mg/kg/injection, schedule: Q01DX001 (ip), vehicle: Klucel (hydroxypropylcellulose) (HPC)
  T/C: 727 % of control
dose: 71.0 mg/kg/injection, schedule: Q01DX001 (ip), vehicle: Klucel (hydroxypropylcellulose) (HPC)
  T/C: 228 % of control

## CS(=O)(=O)Nc1ccc(Nc2c3ccccc3nc3cc(N)ccc23)cc1
dose: 1.0 mg/kg/injection, schedule: Q01DX009 (ip), vehicle: saline
  T/C: 120 % of control
dose: 1.0 mg/kg/injection, schedule: Q01DX009 (sc), vehicle: saline
  T/C: 96 % of control
dose: 2.0 mg/kg/injection, schedule: Q01DX009 (ip), vehicle: saline
  T/C: 98 % of control
dose: 2.0 mg/kg/injection, schedule: Q01DX009 (sc), vehicle: saline
  T/C: 103 % of control
dose: 4.0 mg/kg/injection, schedule: Q01DX009 (sc), vehicle: saline
  T/C: 104 % of control

## OC(CBr)C(O)C(O)C(O)CBr (stereo unspecified)
dose: 25.0 mg/kg/injection, schedule: Q01DX009 (ip), vehicle: steriod suspending solution
  T/C: 108 % of control
dose: 50.0 mg/kg/injection, schedule: Q01DX009 (ip), vehicle: steriod suspending solution
  T/C: 121 % of control
dose: 100.0 mg/kg/injection, schedule: Q01DX009 (ip), vehicle: steriod suspending solution
  T/C: 117 % of control

## NC(Cc1ccc(N(CCCl)CCCl)cc1)C(=O)O (stereo unspecified)
[2]
  T/C: 119 % of control
[3]
  T/C: 117 % of control
